System: Coptotermes formosanus Shiraki
Assay: Test Example 1: termite-killing test on treated filter paper
Format: in vivo
Conditions: mortality class; 1 ml of a 500 ppm solution on filter paper, seven days after inoculation, triplicate group of 10 insects
Experimental: A filter paper was spread in a glass dish having a diameter of 9 cm, onto which was dropped 1 ml of a 500 ppm solution of the ant controller of the present invention. Then, the filter paper was inoculated with Coptotermes formosanus Shiraki. Seven days after the inoculation, percentage of dead insects was investigated, from which mortality was calculated. The test was carried out with triplicate group of 10 insects.

Compound	Termite-killing effect
CC(C(=NNC(=O)Nc1ccc(OC(F)(F)F)cc1)c1ccccc1)c1ccccc1 (mixture of isomers) [Compound 50]	A (100)
O=C(NN=C(c1ccccc1)C(O)c1ccc(Cl)cc1)Nc1ccc(OC(F)(F)F)cc1 (racemic) [Compound 61]	A (100)
N#Cc1ccc(C(O)C(=NNC(=O)Nc2ccc(Cl)cc2)c2ccccc2)cc1 (racemic) [Compound 62]	A (100)
N#Cc1ccc(C(O)C(=NNC(=O)Nc2ccc(OC(F)(F)F)cc2)c2ccccc2)cc1 (racemic) [Compound 63]	A (100)
CC(C(=NNC(=O)Nc1ccc(Cl)cc1)c1ccccc1)c1ccccc1 (racemic) [Compound 64]	A (100)
CC(C(=NNC(=S)Nc1ccc(OC(F)(F)F)cc1)c1ccccc1)c1ccccc1 (racemic) [Compound 65]	C (89-80)
COC(C(=NNC(=O)Nc1ccc(Cl)cc1)c1ccccc1)c1ccccc1 (racemic) [Compound 66]	A (100)
COC(C(=NNC(=O)Nc1ccc(OC(F)(F)F)cc1)c1ccccc1)c1ccccc1 (racemic) [Compound 67]	A (100)
CC(C)OC(C(=NNC(=O)Nc1ccc(Cl)cc1)c1ccccc1)c1ccccc1 (racemic) [Compound 68]	A (100)
CC(C)OC(C(=NNC(=O)Nc1ccc(OC(F)(F)F)cc1)c1ccccc1)c1ccccc1 (racemic) [Compound 69]	B (99-90)
CC(C)COC(C(=NNC(=O)Nc1ccc(Cl)cc1)c1ccccc1)c1ccccc1 (racemic) [Compound 70]	A (100)
CC(C)COC(C(=NNC(=O)Nc1ccc(OC(F)(F)F)cc1)c1ccccc1)c1ccccc1 (racemic) [Compound 71]	A (100)
CC(=O)OC(C(=NNC(=O)Nc1ccc(OC(F)(F)F)cc1)c1ccccc1)c1ccccc1 (racemic) [Compound 72]	A (100)
O=C(NN=C(c1ccccc1)C(OC(=O)c1ccccc1)c1ccccc1)Nc1ccc(OC(F)(F)F)cc1 (racemic) [Compound 73]	A (100)
CN(N=C(c1ccccc1)C(O)c1ccccc1)C(=O)Nc1ccc(Cl)cc1 (racemic) [Compound 74]	A (100)
CN(N=C(c1ccccc1)C(O)c1ccccc1)C(=O)Nc1ccc(OC(F)(F)F)cc1 (racemic) [Compound 75]	A (100)
O=C(NNC(Cc1ccccc1)c1ccccc1)Nc1ccc(Cl)cc1 (racemic) [Compound 84]	A (100)
O=C(NNC(Cc1ccccc1)c1ccccc1)Nc1ccc(OC(F)(F)F)cc1 (racemic) [Compound 85]	C (89-80)
O=C(NNC(Cc1ccc(Cl)cc1)c1ccccc1)Nc1ccc(OC(F)(F)F)cc1 (racemic) [Compound 86]	A (100)
N#Cc1ccc(CC(NNC(=O)Nc2ccc(OC(F)(F)F)cc2)c2ccccc2)cc1 (racemic) [Compound 87]	C (89-80)
O=C(NNC(Cc1ccc([N+](=O)[O-])cc1)c1ccccc1)Nc1ccc(OC(F)(F)F)cc1 (racemic) [Compound 88]	A (100)
O=C(NNC(Cc1ccc(Cl)cc1)c1cccc(F)c1)Nc1ccc(OC(F)(F)F)cc1 (racemic) [Compound 89]	B (99-90)
O=C(NNC(Cc1ccc(Cl)cc1)c1cccc(Cl)c1)Nc1ccc(OC(F)(F)F)cc1 (racemic) [Compound 90]	A (100)

Compound	Termite-killing effect
N#Cc1ccc(CC(NNC(=O)Nc2ccc(OC(F)(F)F)cc2)c2cccc(C(F)(F)F)c2)cc1 (single isomer, unassigned) [Compound 117]	A (100)
N#Cc1ccc(CC(NNC(=O)Nc2ccc(OC(F)(F)F)cc2)c2cccc(C(F)(F)F)c2)cc1 (single isomer, unassigned) [Compound 118]	D (79-50)
O=C(NN=C(Cc1ccccc1)c1ccccc1)Nc1ccc(Cl)cc1 [Compound 1]	A (100)
O=C(NN=C(Cc1ccccc1)c1ccccc1)Nc1ccc(OC(F)(F)F)cc1 [Compound 2]	B (99-90)
O=C(NN=C(Cc1ccc(Cl)cc1)c1ccccc1)Nc1ccc(Cl)cc1 [Compound 3]	A (100)
O=C(NN=C(Cc1ccc(Cl)cc1)c1ccccc1)Nc1ccc(OC(F)(F)F)cc1 [Compound 4]	A (100)
N#Cc1ccc(CC(=NNC(=O)Nc2ccc(Cl)cc2)c2ccccc2)cc1 [Compound 5]	A (100)
N#Cc1ccc(CC(=NNC(=S)Nc2ccc(Cl)cc2)c2ccccc2)cc1 [Compound 6]	A (100)
N#Cc1ccc(CC(=NNC(=S)Nc2ccc(OC(F)(F)F)cc2)c2ccccc2)cc1 [Compound 7]	A (100)
O=C(NN=C(Cc1ccc([N+](=O)[O-])cc1)c1ccccc1)Nc1ccc(Cl)cc1 [Compound 10]	A (100)
O=[N+]([O-])c1ccc(CC(=NNC(=S)Nc2ccc(Cl)cc2)c2ccccc2)cc1 [Compound 11]	A (100)
O=C(NN=C(Cc1ccc([N+](=O)[O-])cc1)c1ccccc1)Nc1ccc(OC(F)(F)F)cc1 [Compound 12]	A (100)
O=[N+]([O-])c1ccc(CC(=NNC(=S)Nc2ccc(OC(F)(F)F)cc2)c2ccccc2)cc1 [Compound 13]	A (100)
O=C(NN=C(Cc1ccc([N+](=O)[O-])cc1)c1ccccc1)Nc1ccc(SC(F)(F)F)cc1 [Compound 14]	A (100)
O=C(NN=C(Cc1ccccc1)c1cccc(Cl)c1)Nc1ccc(OC(F)(F)F)cc1 [Compound 15]	B (99-90)
O=C(NN=C(Cc1ccc(Cl)cc1)c1cccc(Cl)c1)Nc1ccc(OC(F)(F)F)cc1 [Compound 16]	C (89-80)
N#Cc1ccc(CC(=NNC(=O)Nc2ccc(Cl)cc2)c2cccc(Cl)c2)cc1 [Compound 17]	A (100)
N#Cc1ccc(CC(=NNC(=S)Nc2ccc(OC(F)(F)F)cc2)c2cccc(Cl)c2)cc1 [Compound 20]	A (100)
N#Cc1ccc(CC(=NNC(=O)Nc2ccc(SC(F)(F)F)cc2)c2cccc(Cl)c2)cc1 [Compound 21]	A (100)
N#Cc1ccc(CC(=NNC(=O)Nc2ccc([S+]([O-])C(F)(F)F)cc2)c2cccc(Cl)c2)cc1 (stereo not drawn) [Compound 22]	B (99-90)
N#Cc1ccc(CC(=NNC(=O)Nc2ccc(S(=O)(=O)C(F)(F)F)cc2)c2cccc(Cl)c2)cc1 [Compound 23]	A (100)
O=C(NN=C(Cc1ccccc1)c1cccc(Br)c1)Nc1ccc(Cl)cc1 [Compound 24]	C (89-80)
O=C(NN=C(Cc1ccccc1)c1cccc(Br)c1)Nc1ccc(OC(F)(F)F)cc1 [Compound 25]	D (79-50)

Compound	Termite-killing effect
N#Cc1ccc(CC(=NNC(=O)Nc2ccc(Cl)cc2)c2cccc(Br)c2)cc1 [Compound 26]	A (100)
N#Cc1ccc(CC(=NNC(=O)Nc2ccc(OC(F)(F)F)cc2)c2cccc(Br)c2)cc1 [Compound 27]	A (100)
N#Cc1ccc(CC(=NNC(=O)Nc2ccc(SC(F)(F)F)cc2)c2cccc(Br)c2)cc1 [Compound 28]	C (89-80)
N#Cc1ccc(CC(=NNC(=O)Nc2ccc([S+]([O-])C(F)(F)F)cc2)c2cccc(Br)c2)cc1 (stereo not drawn) [Compound 29]	C (89-80)
N#Cc1ccc(CC(=NNC(=O)Nc2ccc(S(=O)(=O)C(F)(F)F)cc2)c2cccc(Br)c2)cc1 [Compound 30]	A (100)
O=C(NN=C(Cc1ccccc1)c1cccc(F)c1)Nc1ccc(Cl)cc1 [Compound 31]	A (100)
O=C(NN=C(Cc1ccccc1)c1cccc(F)c1)Nc1ccc(OC(F)(F)F)cc1 [Compound 32]	A (100)
O=C(NN=C(Cc1ccc(Cl)cc1)c1cccc(F)c1)Nc1ccc(OC(F)(F)F)cc1 [Compound 33]	C (89-80)
O=C(NN=C(Cc1ccc(Cl)cc1)c1cccc(F)c1)Nc1ccc(Cl)cc1 [Compound 34]	A (100)
N#Cc1ccc(CC(=NNC(=O)Nc2ccc(OC(F)(F)F)cc2)c2cccc(F)c2)cc1 [Compound 35]	A (100)
N#Cc1ccc(CC(=NNC(=O)Nc2ccc(Cl)cc2)c2cccc(I)c2)cc1 [Compound 36]	B (99-90)
N#Cc1ccc(CC(=NNC(=O)Nc2ccc(OC(F)(F)F)cc2)c2cccc(I)c2)cc1 [Compound 37]	A (100)
Cc1cccc(C(Cc2ccccc2)=NNC(=O)Nc2ccc(Cl)cc2)c1 [Compound 38]	B (99-90)
Cc1cccc(C(Cc2ccccc2)=NNC(=O)Nc2ccc(OC(F)(F)F)cc2)c1 [Compound 39]	A (100)
Cc1cccc(C(Cc2ccc(C#N)cc2)=NNC(=O)Nc2ccc(Cl)cc2)c1 [Compound 40]	D (79-50)
Cc1cccc(C(Cc2ccc(C#N)cc2)=NNC(=O)Nc2ccc(OC(F)(F)F)cc2)c1 [Compound 41]	A (100)
O=C(NN=C(Cc1ccccc1)c1cccc(C(F)(F)F)c1)Nc1ccc(Cl)cc1 [Compound 42]	A (100)
O=C(NN=C(Cc1ccccc1)c1cccc(C(F)(F)F)c1)Nc1ccc(OC(F)(F)F)cc1 [Compound 43]	A (100)
N#Cc1ccc(CC(=NNC(=S)Nc2ccc(OC(F)(F)F)cc2)c2cccc(C(F)(F)F)c2)cc1 [Compound 45]	A (100)
CN(C(=O)NN=C(Cc1ccccc1)c1ccccc1)c1ccc(Cl)cc1 [Compound 46]	A (100)
CN(C(=O)NN=C(Cc1ccccc1)c1ccccc1)c1ccc(OC(F)(F)F)cc1 [Compound 47]	A (100)
CC(C(=NNC(=O)Nc1ccc(Cl)cc1)c1ccccc1)c1ccccc1 (stereo not drawn) [Compound 48]	A (100)
CC(C(=NNC(=O)Nc1ccc(Br)cc1)c1ccccc1)c1ccccc1 (stereo not drawn) [Compound 49]	C (89-80)

— US8361487B1, “Ant controllers and method for application thereof” (BASF Aktiengesellschaft, priority 1999, dated 2013)
